Laboratory results: patent publication US12612371B2, “Sigma-1 receptor ligands and therapeutic uses thereof” (UNIVERSITE DE STRASBOURG, priority 2019, dated 2026)

These compounds were tested against T1, sigma 1 (h) (Homo sapiens, UniProt Q99720) (assay: σ1 binding assay ([3H](+)pentazocine displacement, Jurkat cell membranes)). Details: compound at 10 nM, [3H](+)pentazocine 15 nM, 37° C., 2 hours, read-out: Sigma-1 receptor % inhibition 10 nM.
T1 construct: incubating Jurkat cell membranes (10-20 mg protein per tube) with [^3H](+) pentazocine; endogenous in cells; host or cells: Jurkat cell membranes
T1 sequence (Q99720 whole entry): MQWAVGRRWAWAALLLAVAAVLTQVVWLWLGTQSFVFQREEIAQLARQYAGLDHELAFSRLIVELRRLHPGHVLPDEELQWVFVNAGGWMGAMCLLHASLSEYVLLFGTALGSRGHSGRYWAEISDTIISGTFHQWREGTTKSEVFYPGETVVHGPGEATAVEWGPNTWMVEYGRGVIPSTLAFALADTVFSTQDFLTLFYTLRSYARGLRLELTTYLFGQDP
Procedure: The σ1 binding assays were performed according to Ganapathy et al (Ganapathy, M. E. et al. (1999), J. Pharmacol. Exp. Ther., 28:251-260). The σ1 binding assay was carried out by incubating Jurkat cell membranes (10-20 mg protein per tube) with [^3H](+) pentazocine a selective S1R ligand (15 nM) and a range of concentration of tested compounds, at 37° C. for 2 hours in 5 mM tris/HCl buffer (pH=7.4). The inhibition of [3H]-(+)-pentazocine binding assay is mainly used to determine the inhibition constant (Ki) of potential SIR ligands. These assays are performed with a single concentration of [^3H]-(+)-pentazocine at a concentration near its KD and increasing concentrations of non-radioactive ligands.

Structure (SMILES)	inhibition at 0.01 µM [%]
CN(CCCn1nccc(-c2ccccc2)c1=O)Cc1ccccc1 [9a, 2-(3-(benzyl(methyl)amino)propyl)-4-phenylpyridazin-3(2H)-one]	61.5
O=c1c(-c2ccccc2)ccnn1CCCCN(Cc1ccccc1)CC1CCCO1 (stereo not drawn) [10m, 2-(4-(benzyl((tetrahydrofuran-2-yl)methyl)amino)butyl)-4-phenylpyridazin-3(2H)-one]	28.8
O=c1c(-c2ccccc2)ccnn1CCCCNC12CC3CC(CC(C3)C1)C2 [10i, 2-(4-(adamantan-1-ylamino)butyl)-4-phenylpyridazin-3(2H)-one]	37.1
O=c1c(-c2ccccc2)ccnn1CCCCN1CCCCCCC1 [10f, 2-(4-(azocan-1-yl)butyl)-4-phenylpyridazin-3(2H)-one]	70
O=c1c(-c2ccccc2)ccnn1CCCCN1CCCCCC1 [10e, 2-(4-(azepan-1-yl)butyl)-4-phenylpyridazin-3(2H)-one]	30.2
O=c1c(-c2ccccc2)ccnn1CCCCN1CCOC(c2ccccc2)C1 (stereo not drawn) [10w, 4-phenyl-2-(4-(2-phenylmorpholino)butyl)pyridazin-3(2H)-one]	37.6
O=c1c(-c2ccccc2)ccnn1CCCCN1C2CCC1CC(O)C2 (stereo not drawn) [compound 16, 2-(4-(3-hydroxy-8-azabicyclo[3.2.1]octan-8-yl)butyl)-4-phenylpyridazin-3(2H)-one]	4.8
COCC(c1ccccc1)N(C)CCCCn1nccc(-c2ccccc2)c1=O (stereo not drawn) [10o, 2-(4-((2-methoxy-1-phenylethyl)(methyl)amino)butyl)-4-phenylpyridazin-3(2H)-one]	25.6
O=c1c(-c2ccccc2)ccnn1CCCN1CCOCC1 [9c, 2-[3-(morpholin-4-yl)propyl]-4-phenyl-2,3-dihydropyridazin-3-one]	7.6
O=c1c(-c2ccccc2)ccnn1CCCN1CCCCCC1 [9b, 2-(3-(azepan-1-yl)propyl)-4-phenylpyridazin-3(2H)-one]	47.4
CN(CCCCn1nccc(-c2ccccc2)c1=O)Cc1ccccc1 [10a, 2-(4-(benzyl(methyl)amino)butyl)-4-phenylpyridazin-3(2H)-one]	87.5
O=c1c(-c2ccccc2)ccnn1CCCCN1CCCC(CO)C1 (stereo not drawn) [10t, 2-(4-(3-(hydroxymethyl)piperidin-1-yl)butyl)-4-phenylpyridazin-3(2H)-one]	9.7
O=c1c(-c2ccccc2)ccnn1CCCCN1CCN(Cc2ccccc2)CC1 [10z, 2-[4-(4-benzylpiperazin-1-yl)butyl]-4-phenyl-2,3-dihydropyridazin-3-one]	64.2
O=c1c(-c2ccccc2)ccnn1CCCCN1CCCOCC1 [10c, 2-(4-(1,4-oxazepan-4-yl)butyl)-4-phenylpyridazin-3(2H)-one]	40.3
O=c1c(-c2ccccc2)ccnn1CCCCN1CCOCC1 [10b, 2-(4-morpholinobutyl)-4-phenylpyridazin-3(2H)-one]	14.5
O=c1c(-c2ccccc2)ccnn1CCCCN1CCCCC1 [10d, 4-phenyl-2-(4-(piperidin-1-yl)butyl)pyridazin-3(2H)-one]	28.3
O=c1c(-c2ccccc2)ccnn1CCCCN1CCc2ccccc2CC1 [10h, 4-phenyl-2-(4-(1,2,4,5-tetrahydro-3H-benzo[d]azepin-3-yl)butyl)pyridazin-3(2H)-one]	70.8
O=c1cc(-c2ccccc2)cnn1CCCCN1CCOCC1 [compound 14, 2-(4-morpholinobutyl)-5-phenylpyridazin-3(2H)-one]	2.1
CC1(C)CC2CC(C)(CN2CCCCn2nccc(-c3ccccc3)c2=O)C1 (stereo not drawn) [10k, 4-phenyl-2-(4-(1,3,3-trimethyl-6-azabicyclo[3.2.1]octan-6-yl)butyl)pyridazin-3(2H)-one]	3.7
O=c1c(-c2ccccc2)ccnn1CCCCN1CCC(c2ccccc2)CC1 [10s, 4-phenyl-2-(4-(4-phenylpiperidin-1-yl)butyl)pyridazin-3(2H)-one]	64.6
CC1CN(CCCCn2nccc(-c3ccccc3)c2=O)CC(C)O1 (stereo not drawn) [10x, 2-(4-(2,6-dimethylmorpholino)butyl)-4-phenylpyridazin-3(2H)-one]	34.6
O=c1c(-c2ccccc2)ccnn1CCCCN1CCc2ccccc2C1 [10g, 2-(4-(3,4-dihydroisoquinolin-2(1H)-yl)butyl)-4-phenylpyridazin-3(2H)-one]	73.5
CN(CCCCn1nccc(-c2ccccc2)c1=O)C12CC3CC(CC(C3)C1)C2 [10j, 2-(4-(adamantan-1-yl(methyl)amino)butyl)-4-phenylpyridazin-3(2H)-one]	4.9
CN(CCCCn1nccc(-c2ccccc2)c1=O)CC1CCOCC1 [10q, 2-(4-(methyl((tetrahydro-2H-pyran-4-yl)methyl)amino)butyl)-4-phenylpyridazin-3(2H)-one]	29.4

More lines, now with the values ahead:

inhibition at 0.01 µM [%]	Structure (SMILES)
15.6	O=c1c(-c2ccoc2)ccnn1CCCCN1CCOCC1 [11p, 4-(furan-3-yl)-2-[4-(morpholin-4-yl)butyl]-2,3-dihydropyridazin-3-one]
12	O=c1c(-c2ccc(F)cc2)ccnn1CCCCN1CCOCC1 [11h, 4-(4-fluorophenyl)-2-(4-morpholinobutyl)pyridazin-3(2H)-one]
7.4	O=c1c(-c2ccccc2)ccnn1CCCCN1CCC[C@H]2CCCC[C@@H]21 [11e, 2-{4-[(4aR,8aS)-decahydroquinolin-1-yl]butyl}-4-phenyl-2,3-dihydropyridazin-3-one]
12.3	CN(Cc1ccccc1)CC(O)CCn1nccc(-c2ccccc2)c1=O (stereo not drawn) [33a, 2-(4-(benzyl(methyl)amino)-3-hydroxybutyl)-4-phenylpyridazin-3(2H)-one]
83.4	O=c1c(-c2ccccc2)ccnn1CCCCN1CCC(Cc2ccccc2)CC1 [11a, 2-[4-(4-benzylpiperidin-1-yl)butyl]-4-phenyl-2,3-dihydropyridazin-3-one]
15.8	O=c1c(N2CCCCC2)ccnn1CCCCN1CCOCC1 [25a, 2-(4-morpholinobutyl)-4-(piperidin-1-yl)pyridazin-3(2H)-one]
33.4	O=c1c(-c2ccsc2)ccnn1CCCCN1CCOCC1 [11o, 2-[4-(morpholin-4-yl)butyl]-4-(thiophen-3-yl)-2,3-dihydropyridazin-3-one]
73.9	CCN(CCCCn1nccc(-c2ccccc2)c1=O)Cc1ccccc1 [11b, 2-{4-[benzyl(ethyl)amino]butyl}-4-phenyl-2,3-dihydropyridazin-3-one]
6.13	O=c1c(-c2ccc(C(F)(F)F)cc2)ccnn1CCCCN1CCOCC1 [11n, 2-[4-(morpholin-4-yl)butyl]-4-[4-(trifluoromethyl)phenyl]-2,3-dihydropyridazin-3-one]
1.9	O=c1c(-c2ccc(Cl)cc2)ccnn1CCCCN1CCOCC1 [11k, 4-(4-chlorophenyl)-2-[4-(morpholin-4-yl)butyl]-2,3-dihydropyridazin-3-one]
69.1	O=c1c(-c2cccc(Cl)c2)ccnn1CCCCN1CCOCC1 [11l, 4-(3-chlorophenyl)-2-[4-(morpholin-4-yl)butyl]-2,3-dihydropyridazin-3-one]
1.4	Cc1ncc(-c2ccccc2)c(=O)n1CCCCN1CCOCC1 [40a, 2-methyl-3-(4-morpholinobutyl)-5-phenylpyrimidin-4(3H)-one]
1.1	O=c1c(CCc2ccccc2)ccnn1CCCCN1CCOCC1 [21a, 2-[4-(morpholin-4-yl)butyl]-4-(2-phenylethyl)-2,3-dihydropyridazin-3-one]
5.04	O=c1c(-c2ccccc2Cl)ccnn1CCCCN1CCOCC1 [11m, 4-(2-chlorophenyl)-2-[4-(morpholin-4-yl)butyl]-2,3-dihydropyridazin-3-one]
16.1	O=c1c(-c2ccccc2)ccnn1CCCCN1CCN(c2ccccc2)CC1 [11d, 4-phenyl-2-[4-(4-phenylpiperazin-1-yl)butyl]-2,3-dihydropyridazin-3-one]
3	O=c1c(-c2ccccc2)cccn1CCCCN1CCOCC1 [41a, 1-[4-(morpholin-4-yl)butyl]-3-phenyl-1,2-dihydropyridin-2-one]
1.4	O=c1c(-c2ccccc2)cncn1CCCCN1CCOCC1 [40b, 3-[4-(morpholin-4-yl)butyl]-5-phenyl-3,4-dihydropyrimidin-4-one]

Same assay, conditions: compound at 100 nM, [3H](+)pentazocine 15 nM, 37° C., 2 hours, read-out: Sigma-1 receptor % inhibition 100 nM

Structure (SMILES)	inhibition at 0.1 µM [%]
O=c1c(-c2ccccc2)ccnn1CCCCN1CCOC(c2ccccc2)C1 (stereo not drawn) [10w, 4-phenyl-2-(4-(2-phenylmorpholino)butyl)pyridazin-3(2H)-one]	79.4
COCC(c1ccccc1)N(C)CCCCn1nccc(-c2ccccc2)c1=O (stereo not drawn) [10o, 2-(4-((2-methoxy-1-phenylethyl)(methyl)amino)butyl)-4-phenylpyridazin-3(2H)-one]	68.3
CN(CCO)CCCCn1nccc(-c2ccccc2)c1=O [10p, 2-(4-((2-hydroxyethyl)(methyl)amino)butyl)-4-phenylpyridazin-3(2H)-one]	9.7
O=c1c(-c2ccccc2)ccnn1CCCCN1CCCC(CO)C1 (stereo not drawn) [10t, 2-(4-(3-(hydroxymethyl)piperidin-1-yl)butyl)-4-phenylpyridazin-3(2H)-one]	38.2
O=c1c(-c2ccccc2)ccnn1CCCCN1CCCOCC1 [10c, 2-(4-(1,4-oxazepan-4-yl)butyl)-4-phenylpyridazin-3(2H)-one]	80.3
O=c1c(-c2ccccc2)ccnn1CCCCN1CCCCC1CCO (stereo not drawn) [10u, 2-(4-(2-(2-hydroxyethyl)piperidin-1-yl)butyl)-4-phenylpyridazin-3(2H)-one]	26.5
CC1CN(CCCCn2nccc(-c3ccccc3)c2=O)CC(C)O1 (stereo not drawn) [10x, 2-(4-(2,6-dimethylmorpholino)butyl)-4-phenylpyridazin-3(2H)-one]	76.2
CN(CCCCn1nccc(-c2ccccc2)c1=O)CC1CCOCC1 [10q, 2-(4-(methyl((tetrahydro-2H-pyran-4-yl)methyl)amino)butyl)-4-phenylpyridazin-3(2H)-one]	79.6

Results, then the compound that gave them:

inhibition at 0.1 µM [%]	Structure (SMILES)
86	Cc1cc(-c2ccccc2)c(=O)n(CCCCN(C)Cc2ccccc2)n1 [11v, 2-{4-[benzyl(methyl)amino]butyl}-6-methyl-4-phenyl-2,3-dihydropyridazin-3-one]
53.9	Cc1cc(-c2ccccc2)c(=O)n(CCCCN2CCCCCC2)n1 [11w, 2-[4-(azepan-1-yl)butyl]-6-methyl-4-phenyl-2,3-dihydropyridazin-3-one]
